Data from publication PMC7586386, “Discovery of Covalent Inhibitors Targeting the Transcriptional Enhanced Associate Domain Central Pocket” (Journal of Medicinal Chemistry, 2020).

Legend:
hTEAD4 (nonacylated) [1] = target: T1, hTEAD4 (nonacylated) (Homo sapiens, UniProt Q15561); assay: Whole-protein ESI–MS of covalent modification; format: binding; conditions: 8 equiv of compound, 1 h, rt
T1 construct: N-terminal His6-tagged hTEAD4^217–434 was subcloned; made in house; host or cells: Escherichia coli BL21-CodonPlus (DE3)-RIPL
T1 sequence (Q15561 217-434): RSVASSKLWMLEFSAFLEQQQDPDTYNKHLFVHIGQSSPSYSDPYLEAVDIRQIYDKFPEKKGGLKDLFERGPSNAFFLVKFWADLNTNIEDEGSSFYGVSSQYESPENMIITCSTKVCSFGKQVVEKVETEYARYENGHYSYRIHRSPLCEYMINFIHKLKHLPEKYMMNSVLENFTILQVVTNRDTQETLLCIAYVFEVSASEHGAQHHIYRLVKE
Experimental: (§1) The protein solution (1 μL 5 μM) was injected to UPLC-MS (ThermoScientific_UltiMate 3000 LC coupled to a Velos Pro MS) through a desalting column (MassPREP Online desalting, 2.1 × 10 mm). For reactions, 1 μM of the protein was incubated at room temperature for 1 h with 8 equiv of the compound in HEPES (25 mM) and NaCl (150 mM) pH 6.5 buffer. Then, the mixture was centrifuged before injecting 5 μL. The deconvolution of m/z values was performed using Promass Xcalibur software.

hTEAD4 (acylated) = target: T2, hTEAD4 (acylated) (Homo sapiens, UniProt Q15561); assay: Whole-protein ESI–MS of covalent modification; format: binding; conditions: hTEAD4 not treated with hydroxylamine
T2 construct: N-terminal His6-tagged hTEAD4^217–434 was subcloned; made in house; host or cells: Escherichia coli BL21-CodonPlus (DE3)-RIPL
T2 sequence (Q15561 217-434): as above
Experimental: as §1

hTEAD1–4 = assay: Thiol conjugation assay, TEAD homologues (range over all four); format: binding, human
Experimental: To serially diluted solutions of the tested compounds in 5 μL of assay buffer [HEPES (25 mM) and NaCl (150 mM) pH 6.5], freshly prepared 5 μL of 0.45 μM protein solution was added and incubated at room temperature for 10 min, followed by addition of 5 μL of 0.45 μM CPM solution, giving a 15 μL final assay volume, 150 nM protein, and 150 nM CPM. The assay plate was shaken at room temperature for 1 h before measuring the fluorescence (Ex/Em: 380/470 nm). Compound 19 was used as an internal standard to determine 100% inhibition.

[2] = target: T3, mTEAD4 Cys360Ala with YAP (Mus musculus, UniProt Q62296, C360A); assay: FP-based competitive TEAD–YAP interaction assay (FITC-hYAP50–100); format: binding
T3 construct: N-terminal His6- and MBP-tagged mTEAD4^209–427 with Cys360Ala mutation; made in house; host or cells: E. coli BL21-CodonPlus (DE3)-RIPL
T3 sequence (Q62296 209-427 C360A): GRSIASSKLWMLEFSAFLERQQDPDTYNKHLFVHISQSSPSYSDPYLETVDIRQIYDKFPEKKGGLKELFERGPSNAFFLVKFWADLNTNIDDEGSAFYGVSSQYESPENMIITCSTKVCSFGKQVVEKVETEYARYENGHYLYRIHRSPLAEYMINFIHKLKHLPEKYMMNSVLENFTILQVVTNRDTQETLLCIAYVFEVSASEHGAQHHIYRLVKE
Experimental: (§2) All the TEAD–YAP binding experiments were performed in phosphate-buffered saline (PBS) (pH 7.5).
(§3) To serially diluted solution of the tested compounds in 5 μL of PBS, freshly prepared 5 μL of protein solution was added and incubated at room temperature for 10 min followed by addition of 5 μL of FAM-YAP^50–100 solution. The assay plate was shaken at room temperature for 1 h before measuring the FP (Ex/Em: 485/535 nm). Final protein and FAM concentrations are as follows (FAM/protein): hTEAD4 (nonacylated): 2 nM/5 nM, hTEAD4 (acylated): 3 nM/15 nM, mTEAD4_Cys360Ser: 10 nM/50 nM, and mTEAD4_Cys360Ala: 10 nM/50 nM.

[3] = target: T4, hTEAD4 (acylated) with YAP (Homo sapiens, UniProt Q15561); assay: as above; format: binding
T4 construct: N-terminal His6-tagged hTEAD4^217–434 was subcloned; made in house; host or cells: Escherichia coli BL21-CodonPlus (DE3)-RIPL
T4 sequence (Q15561 217-434): as the sequence (Q15561 217-434) above
Experimental: as §2, §3

[4] = target: T5, mTEAD4 Cys360Ser with YAP (Mus musculus, UniProt Q62296, C360S); assay: as above; format: binding
T5 construct: His (N); made in house
T5 sequence (Q62296 210-427 C360S limits assumed): as the sequence (Q15561 217-434) above, with V3I, Q19R, G35S, A48T, D67E, E91D, S96A, S142L, C151S counted along it
Experimental: as §2, §3

hTEAD4 (nonacylated) [5] = target: T1, hTEAD4 (nonacylated); assay: Differential scanning fluorimetry; format: binding; conditions: 20 μM protein, 80 μM inhibitor; value is a decrease
Experimental: Nonacylated hTEAD4 (20 μM) was incubated in the absence or presence of inhibitors (80 μM) at 25 °C for 10 min. Then, SYPRO orange (Sigma-Aldrich) at a final concentration of 5× was added and the mixture was heated at a ramp rate of 1 °C/min in a qPCR machine (Applied Biosystems). The derivative of the SYPRO orange fluorescent intensity is plotted as a function of temperature.

[6] = Assay media stability (HPLC); format: physicochemical
Experimental: The compounds were incubated in MES (25 mM), pH 6.5 buffer or HEPES (25 mM) and NaCl (150 mM) pH 6.5 buffer for an hour at room temperature before injecting into a reverse-phase HPLC system (ThermoScientific_Ultimate 3000) equipped with a C18 column (2/50 Nucleodur C18 gravity 1.8 μm von Macherey-Nagel).

## O=c1cc(CO)oc(C(Nc2ccccc2)c2ccccc2)c1O (stereo not drawn) [Compound 19, 3-Hydroxy-6-(hydroxymethyl)-2-(phenyl(phenylamino)methyl)-4H-pyran-4-one]
hTEAD4 (nonacylated) [1]
  modification of the protein (whole-protein ESI–MS): modification of the protein (+230 Da) was observed
hTEAD4 (acylated)
  adduct formation with acylated protein (whole-protein ESI–MS): did not result in the formation of an acylated hTEAD4-19 adduct
hTEAD1–4
  IC50: 2.6 to 6.9 µM
[2]
  inhibition of the interaction of YAP with TEAD: did not inhibit
[3]
  inhibition of the interaction of YAP with TEAD: did not inhibit
[4]
  inhibition of the interaction of YAP with TEAD: did not inhibit
hTEAD4 (nonacylated) [5]
  lowering of the melting point (Tm): 5 °C
[6]; HEPES buffer (pH 6.5), 1 h
  stability in assay medium: appearance of two small peaks was detected
[6]; MES buffer, pH 6.5, 1 h, rt
  stability in assay medium: stable
